For orientation: IC50 means the concentration that inhibits the measured activity by half.

For one test, the target named is T1, IGF-1R(h) (Homo sapiens, UniProt P08069).
T1 construct: purchased Millipore (KinaseProfiler service)
Kind of test: Kinase screen. Format: biochemical. The conditions noted are these: 0.1% DMSO control = 100%.

Another test concerns the target T2, cKit(h) (Homo sapiens, UniProt P10721).
T2 construct: purchased Millipore (KinaseProfiler service)
Kind of test: Kinase screen. Format: biochemical. Conditions: 0.1% DMSO control = 100%.

A further test addresses T3, CK2(h) (Homo sapiens, UniProt P68400).
T3 construct: purchased Millipore (KinaseProfiler service)
Kind of test: Kinase screen. In kind it is biochemical. Conditions: 0.1% DMSO control = 100%.

Another test addresses T4, IRAK4(h) (Homo sapiens, UniProt Q9NWZ3).
T4 construct: purchased Millipore (KinaseProfiler service)
As to the kind of experiment: Kinase screen. Format: biochemical. The conditions noted are these: 0.1% DMSO control = 100%.

A further test addresses T5, EphA5(h) (Homo sapiens, UniProt P54756).
T5 construct: purchased Millipore (KinaseProfiler service)
As to the kind of experiment: Kinase screen. Format: biochemical. The conditions noted are these: 0.1% DMSO control = 100%.

For another test, the target named is T6, MSK2(h) (Homo sapiens, UniProt O75676).
T6 construct: purchased Millipore (KinaseProfiler service)
As to the kind of experiment: Kinase screen. In kind it is biochemical. Conditions: 0.1% DMSO control = 100%.

The next test has as its target T7, p70S6K(h) (Homo sapiens, UniProt P23443).
T7 construct: purchased Millipore (KinaseProfiler service)
As to the kind of experiment: Kinase screen. In kind it is biochemical. The conditions noted are these: 0.1% DMSO control = 100%.

A further test has as its target T8, SRPK1(h) (Homo sapiens, UniProt Q96SB4).
T8 construct: purchased Millipore (KinaseProfiler Service)
Kind of test: Kinase screen. In kind it is biochemical. Conditions: 0.1% DMSO control = 100%.

For the next test, the target named is T9, PRAK(h) (Homo sapiens, UniProt Q8IW41).
T9 construct: purchased Millipore (KinaseProfiler service)
As to the kind of experiment: Kinase screen. Format: biochemical. Conditions: 0.1% DMSO control = 100%.

The next test addresses T10, LOK(h) (Homo sapiens, UniProt O94804).
T10 construct: purchased Millipore (KinaseProfiler service)
Kind of test: Kinase screen. Format: biochemical. The conditions noted are these: 0.1% DMSO control = 100%.

The target of another test is T11, DRAK1(h) (Homo sapiens, UniProt Q9UEE5).
T11 construct: purchased Millipore (KinaseProfiler service)
Kind of test: Kinase screen. In kind it is biochemical. The conditions noted are these: 0.1% DMSO control = 100%.

In another test the test system is canonical Wnt signaling. As to the kind of experiment: ST-Luc (SuperTOPFlash) Luciferase assay in HEK293 cells, 30% Wnt3a-CM. In kind it is cell-based. The conditions noted are these: Homo sapiens, 24 h. The gist of the method:
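HEK293 cells were transiently co-transfected with SuperTOPFlash firefly luciferase and pRL-TK Renilla reporters, then treated 24 h with 10 μM compound in 30% Wnt3a-conditioned medium. Dual luciferase activity was read, and percent activity was expressed relative to DMSO control.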

The test system of another test is PP2A(h). Kind of test: Phosphatase screen. In kind it is biochemical, human. The conditions noted are these: 10 μM; 0.1% DMSO control = 100%.
The next test concerns TNF-α pathway. Kind of test: NF-κB-Luciferase reporter in HEK293 cells with rTNF-α. Format: cell-based. The conditions noted are these: 1 or 10 μM, 24 h, 10 ng/ml rTNF-α. The text has this:
2) HEK293 cells transiently transfected with a NF-κB-Luciferase reporter (NF-κB-Luc—purchased from Promega).
For orientation: Reporter assays use an easily measured gene product as a stand-in for the process of interest.

The target of a further test is T12, JNK3(h) (Homo sapiens, UniProt P53779).
T12 construct: purchased Millipore (KinaseProfiler service)
As to the kind of experiment: Kinase screen. In kind it is biochemical. Conditions: 0.1% DMSO control = 100%.

The next test deals with T13, HePTP(h) (Homo sapiens, UniProt P35236).
T13 construct: purchased Millipore (KinaseProfiler service)
As to the kind of experiment: Phosphatase screen. In kind it is biochemical. Conditions: 0.1% DMSO control = 100%.

Another test deals with T14, ROCK-I(h) (Homo sapiens, UniProt Q13464).
T14 construct: purchased Millipore (KinaseProfiler service)
Kind of test: Kinase screen. Format: biochemical. The conditions noted are these: 0.1% DMSO control = 100%.

In another test the target is T15, PAK2(h) (Homo sapiens, UniProt Q13177).
T15 construct: purchased Millipore (KinaseProfiler service)
Kind of test: Kinase screen. Format: biochemical. The conditions noted are these: 0.1% DMSO control = 100%.

Another test concerns the target T16, Plk3(h) (Homo sapiens, UniProt Q9H4B4).
T16 construct: purchased Millipore (KinaseProfiler service)
Kind of test: Kinase screen. Format: biochemical. The conditions noted are these: 0.1% DMSO control = 100%.

The target of a further test is T17, Aurora-A(h) (Homo sapiens, UniProt O14965).
T17 construct: purchased Millipore (KinaseProfiler service)
Kind of test: Kinase screen. In kind it is biochemical. The conditions noted are these: 0.1% DMSO control = 100%.

In test [1] the test system is SW480 colon carcinoma cells. Kind of test: MTS cell proliferation assay, Table 5. Conditions: Homo sapiens; SW480, 10 μM, 72 h; relative to DMSO control; read-out: Cell proliferation (%) for test compounds. Format: cell-based. The gist of the method: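 SW480 cells treated with 10 μM compound (0.1% DMSO vehicle) in 10% FBS medium, refreshed daily, for 72 h. MTS reduction read at A490 after 2 h substrate incubation; values are t0-corrected growth as percent of DMSO control.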
(In general: Tetrazolium assays rely on reduction of a dye to a coloured formazan, in cell work by metabolically active cells.)

The target of the next test is T18, MAPKAP-K2(h) (Homo sapiens, UniProt P49137).
T18 construct: purchased Millipore (KinaseProfiler service)
Kind of test: Kinase screen. In kind it is biochemical. The conditions noted are these: 0.1% DMSO control = 100%.

T4 sequence (Q9NWZ3 whole entry): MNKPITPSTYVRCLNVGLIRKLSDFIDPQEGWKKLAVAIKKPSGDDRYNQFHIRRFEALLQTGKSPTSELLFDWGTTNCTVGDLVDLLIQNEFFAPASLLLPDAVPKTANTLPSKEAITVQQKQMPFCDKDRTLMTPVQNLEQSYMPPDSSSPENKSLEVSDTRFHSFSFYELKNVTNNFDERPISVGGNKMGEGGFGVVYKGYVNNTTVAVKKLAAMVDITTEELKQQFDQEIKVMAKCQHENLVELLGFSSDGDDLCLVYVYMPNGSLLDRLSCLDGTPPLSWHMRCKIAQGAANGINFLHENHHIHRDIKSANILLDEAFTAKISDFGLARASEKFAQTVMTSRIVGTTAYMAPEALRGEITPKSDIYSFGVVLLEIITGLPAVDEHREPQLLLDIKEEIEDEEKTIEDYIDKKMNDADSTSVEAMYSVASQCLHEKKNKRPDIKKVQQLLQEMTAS
T2 sequence (P10721 26-976): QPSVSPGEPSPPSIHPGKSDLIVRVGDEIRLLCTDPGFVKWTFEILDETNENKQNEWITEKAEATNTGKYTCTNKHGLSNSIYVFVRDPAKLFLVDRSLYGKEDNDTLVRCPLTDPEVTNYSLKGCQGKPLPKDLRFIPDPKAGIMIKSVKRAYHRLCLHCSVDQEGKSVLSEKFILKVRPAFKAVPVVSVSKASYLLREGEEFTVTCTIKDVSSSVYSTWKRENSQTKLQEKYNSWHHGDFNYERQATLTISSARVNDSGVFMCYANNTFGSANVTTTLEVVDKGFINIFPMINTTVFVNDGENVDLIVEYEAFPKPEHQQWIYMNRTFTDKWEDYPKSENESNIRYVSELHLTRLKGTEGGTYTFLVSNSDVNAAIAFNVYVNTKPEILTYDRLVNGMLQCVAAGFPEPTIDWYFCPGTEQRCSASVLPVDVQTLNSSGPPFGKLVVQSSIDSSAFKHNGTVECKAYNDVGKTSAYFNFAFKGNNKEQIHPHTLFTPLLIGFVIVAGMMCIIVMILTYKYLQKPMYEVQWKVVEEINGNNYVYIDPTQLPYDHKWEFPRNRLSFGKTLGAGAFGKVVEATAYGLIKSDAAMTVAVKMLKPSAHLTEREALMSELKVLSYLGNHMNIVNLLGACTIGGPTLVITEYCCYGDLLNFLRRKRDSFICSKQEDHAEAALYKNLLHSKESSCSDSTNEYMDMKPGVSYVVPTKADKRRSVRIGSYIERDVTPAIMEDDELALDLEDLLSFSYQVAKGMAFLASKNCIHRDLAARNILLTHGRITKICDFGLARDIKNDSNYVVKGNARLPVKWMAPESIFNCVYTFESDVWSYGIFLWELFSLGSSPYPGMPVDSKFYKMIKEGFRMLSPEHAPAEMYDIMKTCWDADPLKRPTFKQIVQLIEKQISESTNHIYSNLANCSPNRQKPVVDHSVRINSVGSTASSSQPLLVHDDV
T12 sequence (P53779 whole entry): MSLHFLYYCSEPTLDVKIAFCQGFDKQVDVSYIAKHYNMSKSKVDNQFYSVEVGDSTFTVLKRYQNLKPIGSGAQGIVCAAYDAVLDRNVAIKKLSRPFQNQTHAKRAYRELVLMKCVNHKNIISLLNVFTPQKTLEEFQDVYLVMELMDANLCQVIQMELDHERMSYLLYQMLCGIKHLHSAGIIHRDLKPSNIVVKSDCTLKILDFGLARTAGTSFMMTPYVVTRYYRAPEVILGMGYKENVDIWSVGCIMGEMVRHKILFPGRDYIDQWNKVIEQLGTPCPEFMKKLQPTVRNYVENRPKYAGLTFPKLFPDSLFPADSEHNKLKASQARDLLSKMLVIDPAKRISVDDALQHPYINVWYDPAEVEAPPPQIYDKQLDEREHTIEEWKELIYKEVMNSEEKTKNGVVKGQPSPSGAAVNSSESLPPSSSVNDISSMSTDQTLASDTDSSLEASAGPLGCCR
T17 sequence (O14965 whole entry): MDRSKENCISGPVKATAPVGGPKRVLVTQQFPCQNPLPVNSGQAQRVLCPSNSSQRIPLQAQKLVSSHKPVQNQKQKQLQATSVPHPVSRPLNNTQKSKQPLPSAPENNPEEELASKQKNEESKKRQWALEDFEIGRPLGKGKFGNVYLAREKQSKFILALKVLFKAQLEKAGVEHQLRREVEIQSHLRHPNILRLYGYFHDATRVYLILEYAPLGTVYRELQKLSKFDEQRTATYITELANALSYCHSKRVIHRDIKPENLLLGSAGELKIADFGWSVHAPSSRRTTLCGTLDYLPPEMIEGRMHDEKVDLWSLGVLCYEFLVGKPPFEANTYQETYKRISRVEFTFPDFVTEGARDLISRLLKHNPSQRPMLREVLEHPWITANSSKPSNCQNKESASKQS
T13 sequence (P35236 whole entry): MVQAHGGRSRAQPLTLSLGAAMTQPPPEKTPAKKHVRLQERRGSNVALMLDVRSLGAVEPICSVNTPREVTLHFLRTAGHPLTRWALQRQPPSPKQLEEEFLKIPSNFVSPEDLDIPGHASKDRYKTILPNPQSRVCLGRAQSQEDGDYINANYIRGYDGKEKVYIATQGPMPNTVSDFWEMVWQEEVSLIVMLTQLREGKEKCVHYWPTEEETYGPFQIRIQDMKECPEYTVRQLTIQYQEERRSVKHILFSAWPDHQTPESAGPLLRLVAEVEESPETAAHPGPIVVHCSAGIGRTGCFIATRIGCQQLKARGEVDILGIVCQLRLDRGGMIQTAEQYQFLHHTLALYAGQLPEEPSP
T10 sequence (O94804 whole entry): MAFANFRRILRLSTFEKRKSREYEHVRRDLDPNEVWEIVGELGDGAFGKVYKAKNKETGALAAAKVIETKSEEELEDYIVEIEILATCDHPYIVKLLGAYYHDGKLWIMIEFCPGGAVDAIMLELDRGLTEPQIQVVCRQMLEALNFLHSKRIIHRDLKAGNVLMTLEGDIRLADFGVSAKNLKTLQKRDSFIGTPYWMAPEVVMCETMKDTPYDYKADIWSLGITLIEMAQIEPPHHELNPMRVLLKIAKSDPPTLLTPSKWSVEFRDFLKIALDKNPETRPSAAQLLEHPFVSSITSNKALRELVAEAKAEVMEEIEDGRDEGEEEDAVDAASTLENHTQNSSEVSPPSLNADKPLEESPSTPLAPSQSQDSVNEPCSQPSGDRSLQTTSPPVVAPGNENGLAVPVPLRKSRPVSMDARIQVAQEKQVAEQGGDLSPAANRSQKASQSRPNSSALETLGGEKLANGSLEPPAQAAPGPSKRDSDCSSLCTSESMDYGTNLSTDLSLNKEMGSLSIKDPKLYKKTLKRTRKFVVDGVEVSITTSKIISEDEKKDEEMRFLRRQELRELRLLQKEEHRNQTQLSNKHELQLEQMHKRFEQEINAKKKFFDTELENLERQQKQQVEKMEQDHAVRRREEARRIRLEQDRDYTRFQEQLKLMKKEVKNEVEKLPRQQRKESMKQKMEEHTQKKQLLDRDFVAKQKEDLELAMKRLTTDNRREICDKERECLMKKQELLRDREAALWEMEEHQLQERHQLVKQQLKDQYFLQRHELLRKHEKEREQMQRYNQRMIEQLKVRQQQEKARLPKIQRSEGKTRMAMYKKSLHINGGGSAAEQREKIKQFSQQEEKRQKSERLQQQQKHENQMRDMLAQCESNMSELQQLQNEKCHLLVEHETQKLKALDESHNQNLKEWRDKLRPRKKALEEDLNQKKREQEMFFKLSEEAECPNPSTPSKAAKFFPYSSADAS
T7 sequence (P23443 whole entry): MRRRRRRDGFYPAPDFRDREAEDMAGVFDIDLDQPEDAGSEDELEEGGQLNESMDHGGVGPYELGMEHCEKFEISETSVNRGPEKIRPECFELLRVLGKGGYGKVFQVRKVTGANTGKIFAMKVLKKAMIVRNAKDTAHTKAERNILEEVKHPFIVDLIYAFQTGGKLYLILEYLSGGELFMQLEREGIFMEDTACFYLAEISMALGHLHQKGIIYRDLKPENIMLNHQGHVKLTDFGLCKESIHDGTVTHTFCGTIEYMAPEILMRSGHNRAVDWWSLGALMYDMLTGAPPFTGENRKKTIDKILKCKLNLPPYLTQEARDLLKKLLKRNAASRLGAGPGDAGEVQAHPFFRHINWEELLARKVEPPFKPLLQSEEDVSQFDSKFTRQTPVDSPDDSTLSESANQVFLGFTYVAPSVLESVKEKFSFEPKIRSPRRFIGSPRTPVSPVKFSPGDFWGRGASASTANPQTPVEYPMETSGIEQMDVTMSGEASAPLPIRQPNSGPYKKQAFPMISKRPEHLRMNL
T18 sequence (P49137 whole entry): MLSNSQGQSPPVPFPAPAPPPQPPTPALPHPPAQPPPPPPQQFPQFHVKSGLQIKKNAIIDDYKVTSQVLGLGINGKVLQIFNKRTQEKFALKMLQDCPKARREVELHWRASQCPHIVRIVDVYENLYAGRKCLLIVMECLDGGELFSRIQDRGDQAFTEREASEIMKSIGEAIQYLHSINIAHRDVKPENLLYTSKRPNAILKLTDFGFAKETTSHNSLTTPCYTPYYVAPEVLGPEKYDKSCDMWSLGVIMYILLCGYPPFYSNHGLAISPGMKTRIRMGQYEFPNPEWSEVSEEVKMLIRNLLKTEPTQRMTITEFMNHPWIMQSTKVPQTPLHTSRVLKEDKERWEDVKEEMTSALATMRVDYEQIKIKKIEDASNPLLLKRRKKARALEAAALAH
T9 sequence (Q8IW41 whole entry): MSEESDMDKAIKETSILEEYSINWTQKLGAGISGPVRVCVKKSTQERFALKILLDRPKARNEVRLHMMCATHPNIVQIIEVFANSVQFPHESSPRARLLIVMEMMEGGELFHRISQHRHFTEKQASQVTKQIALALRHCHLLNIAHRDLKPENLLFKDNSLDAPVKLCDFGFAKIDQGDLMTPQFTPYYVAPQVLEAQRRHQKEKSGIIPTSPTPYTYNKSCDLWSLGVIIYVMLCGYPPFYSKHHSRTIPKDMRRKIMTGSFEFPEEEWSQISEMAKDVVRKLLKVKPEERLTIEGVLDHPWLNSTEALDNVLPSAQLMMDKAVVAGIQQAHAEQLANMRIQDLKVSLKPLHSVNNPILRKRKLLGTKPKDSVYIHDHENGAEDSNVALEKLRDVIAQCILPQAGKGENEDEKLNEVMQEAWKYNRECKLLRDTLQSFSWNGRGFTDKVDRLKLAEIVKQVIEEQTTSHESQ

As to `COc1ccc(-n2c(SCc3nc(-c4ccc(C)cc4)no3)nnc2-c2ccncc2)cc1` [Compound 1], the activity at 10 µM on IGF-1R(h) amounted to 149%; on cKit(h), 116%; at CK2(h), 105%; on IRAK4(h), 98%; at EphA5(h) it was 99%; at MSK2(h) it was 108%. Also, the activity at 10 µM at p70S6K(h) was 113%; on SRPK1(h), 96%; at PRAK(h) it was 55%; on LOK(h) it was 109%; on DRAK1(h) it was 116%; in the test on canonical Wnt signaling (HEK293, 10 μM compound, 30% Wnt3a-CM, relative to DMSO control), 15.4%. For the same compound, the activity at 10 µM on JNK3(h) was 93%; on HePTP(h), 106%; at ROCK-I(h) it was 100%; on PAK2(h), 99%; on Plk3(h), 104%; on Aurora-A(h) it was 95%. For the same compound, the values for the activity at 10 µM (in test [1]; at MAPKAP-K2(h)) were 52% and 85%, respectively. In the test on canonical Wnt signaling (HEK293, 30% Wnt3a-CM, 0.1-10 μM, read-out: IC50, reduction of canonical Wnt signaling by the ST-Luc assay), the half-inhibitory concentration (IC50) worked out at 1000 nM. Also, the “Activity (%)” value with PP2A(h) is listed as 87%. For the same compound, the “effect against the TNF-α pathway” value in the test on TNF-α pathway is on record as “no substantial activating or inhibitory effect”.
